# Test results from US12350250B2, “Aggrelytes for treating ocular conditions” (The Regents of the University of Colorado, a Body Corporate, priority 2022, dated 2025).
# Experiments:
# human lenses [1] = test: Stiffness of ex vivo human lenses (Example 22); details: 250 μM, 48 hours
# Description: To test the effects of Aggrelyte-2 and Aggrelyte-2A on human lenses (age: 47-67 years), lenses were incubated in media containing freshly dissolved aggrelyte (250 μM) for 48 hours, with aggrelyte replacement after 24 hours. One lens from each donor pair was treated with aggrelyte, while the other was used as the control. After incubation, lens stiffness was measured, as described above in Example 20.
# mouse lenses [2] = details: 40 mM topical twice daily for four weeks, mice
# Description: A 40 mM solution of Aggrelyte-2A was prepared in a liquid formulation that consisted of benzalkonium chloride (0.001%), NaH2PO4·H2O (0.269%), Na2HPO4 (0.433%), hypromellose (0.2%), and NaCl (0.5%). Aggrelyte-2A in the formulation (5 μl) was applied to the right eye twice daily (8 AM and 4 PM) to unanesthetized animals for four weeks. The left eye received only the formulation (5 μl) (“Vehicle” or “Control”). After treatment, the animals were euthanized by CO2 asphyxiation. The eyes were enucleated, and the lenses were removed immediately by a posterior approach and placed in fresh PBS. The stiffness of the lenses was measured using a computer-controlled lens squeezer. The AcK-bearing protein levels of the lenses were measured by Western blotting. The protein-thiol content of the lenses was measured using a Thiol Quantification Assay Kit from Abcam, using reduced GSH as the standard.
# human lenses [3] = test: Acetylated proteins in ex vivo treated human lenses (Example 23); details: 250 μM, 48 hours
# Description: Each lens from Example 21 was decapsulated and homogenized in N2-bubbled 50 mM phosphate buffer, pH 7.4 (1.5 mL per lens), in a hand-held glass homogenizer. The sample was processed and evaluated for protein content as described in Example 19.
# mouse lenses [4] = test: Acetylated proteins in ex vivo treated mouse lenses (Western blot, Example 19); details: 1 mM, 24 hours
# Description: The lenses from Example 18 were homogenized using N2-bubbled 50 mM phosphate buffer, pH 7.4 (0.4 mL per lens), in a hand-held motorized homogenizer. The homogenate was centrifuged at 20,000×g for 20 minutes at 4° C. The resulting supernatant was collected, and its protein content was measured using BCA Protein Assay Kit using BSA as the standard. The soluble protein was subjected to 12% SDS-PAGE under denaturing conditions and the proteins were electrophoretically transferred to a nitrocellulose membrane and blocked with 5% nonfat dry milk. The membrane was then incubated with a monoclonal antibody against N-acetyllysine (AcK antibody @ 1:5,000 dilution; Cell Signaling Technology Catalog #9681S) for 16 hours, followed by horseradish peroxidase (HRP)-conjugated goat anti-mouse IgG (1:5,000 dilution; Cell Signaling Technology Catalog #7076S) for 1 hour. Chemiluminescence was detected using the Enhanced Chemiluminescence Detection Kit. The membrane was stained with Ponceau-S to visualize the proteins and normalize acetyllysine (AcK)-bearing protein to total protein load.
# mouse lenses [5] = test: Stiffness of ex vivo mouse lenses (Example 18); set-up: species or system mouse (C57BL/6J); details: 1 mM, 24 hours, ex vivo mouse lenses (3-6 months old); not significant
# Description: In this example, the lenses were dissected from the eyes of mice (C57BL/6J, 3-6 months old, Jackson Laboratories, Stock No. 000664) by a posterior approach and incubated without (“Control”) or with Aggrelyte-2 or Aggrelyte-2A (1 mM) for 24 hours in serum-free and phenol-red-free MEM (297 mOsm) at 37° C. Lens stiffness was measured as in Example 10, except that the load was applied at 50 mg increments.
# WI proteins (human lens) = test: Relationship between protein acetylation and solubility: WI proteins treated with acetic anhydride or Aggrelyte-2; assay type: biochemical
# Excerpt: To determine whether protein acetylation alone contributed to lens protein solubility, the soluble protein levels in WI proteins treated with acetic anhydride and Aggrelyte-2 were compared.
# αA-crystallin (αAC) = target: T1, αA-crystallin (αAC) (Homo sapiens, UniProt P02489); test: Relative protein acetylation capability on recombinant αAC; assay type: biochemical; details: 500 μM acetylating agent, αAC 3 mg/mL, 24 hours, 37° C.
# T1 sequence (P02489 1-173): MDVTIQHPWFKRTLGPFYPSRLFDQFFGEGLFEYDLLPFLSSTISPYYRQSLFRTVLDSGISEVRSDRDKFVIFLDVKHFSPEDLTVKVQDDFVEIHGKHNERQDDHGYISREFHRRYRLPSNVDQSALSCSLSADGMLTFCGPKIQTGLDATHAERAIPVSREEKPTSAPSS
# Description: The relative ability of Aggrelyte-2 to acetylate lysine residues in proteins was investigated using αA-crystallin (αAC). Human recombinant αAC (3 mg/mL PBS) was incubated in 50 mM sodium phosphate buffer, pH 7.4, for 24 hours at 37° C. while shaking without or with 500 μM acetylating agent (Aggrelyte-2, acetyl-CoA, acetic anhydride, or aspirin), dialyzed against PBS for 24 hours at 4° C.
smiles,measurement,setting,value
"COC(=O)[C@H](CSC(C)=O)NC(=O)CC(C)(C)C [Aggrelyte-2A, methyl S-acetyl-N-(3,3,-dimethylbutanoyl)-L-cysteinate]",reduction of lens stiffness compared to vehicle-treated lenses,human lenses [1]; ex vivo human lenses (47-67 years),approximately 15%
same,significance of stiffness reduction at 2000-mg load,"human lenses [1]; ex vivo human lenses, 2000-mg load (p<0.05)",significant
same,increase in protein thiol content compared to vehicle-treated lenses,mouse lenses [2],approximately 8%
same,reduction of lens stiffness compared to vehicle-treated lenses,mouse lenses [2]; 200-mg load,approximately 12%
same,increase in density of AcK-bearing proteins compared to vehicle-treated lenses,mouse lenses [2]; Western blot,approximately 10%
same,reduction in stiffness at 400- and 500-mg loads,mouse lenses [2]; relative to 200-mg load result,similar
same,increase in density of acetyl-bearing proteins compared to control lenses,human lenses [3],approximately 5%
same,"density of acetyl-bearing proteins, % increase compared to Aggrelyte-2",mouse lenses [4],at least 50%
same,"density of acetyl-bearing proteins, fold increase compared to untreated control lenses",mouse lenses [4],5 fold
same,reduction of lens stiffness,mouse lenses [5],approximately 20%
CC(=O)OC(C)=O [acetic anhydride],"acetylation of WI proteins, comparison",WI proteins (human lens),better acetylating agent than Aggrelyte-2
same,"acetylating potency, fold higher than Aggrelyte-2",αA-crystallin (αAC),~21 fold
same,rank order of acetylating agents,αA-crystallin (αAC),most potent acetylating agent
CC(=O)SCCNC(=O)CCNC(=O)[C@H](O)C(C)(C)COP(=O)(O)OP(=O)(O)OC[C@H]1O[C@@H](n2cnc3c(N)ncnc32)[C@H](O)[C@@H]1OP(=O)(O)O [acetyl-CoA],rank order of acetylating agents,αA-crystallin (αAC),"followed by Aggrelyte-2, aspirin, and acetyl-CoA"
CC(=O)Oc1ccccc1C(=O)O [aspirin],rank order of acetylating agents,αA-crystallin (αAC),"followed by Aggrelyte-2, aspirin, and acetyl-CoA"
